Experiment: mn = molality of the nth substance listed, in mol/kg
Conditions: 101 kPa, Liquid

OC[C@@H](O)[C@H](O)[C@@H](O)CO [xylitol] + O
Conditions | mass density, 288.15 K [kg/m3] | mass density, 298.15 K [kg/m3] | mass density, 308.15 K [kg/m3] | mass density, 318.15 K [kg/m3] | viscosity, 288.15 K [mPa·s] | viscosity, 298.15 K [mPa·s] | viscosity, 308.15 K [mPa·s] | viscosity, 318.15 K [mPa·s]
m1 = 0.04981 | – | – | – | – | 1.164 | 0.909 | 0.733 | 0.607
m1 = 0.0542 | 1001.89 | 999.75 | 996.72 | 992.86 | – | – | – | –
m1 = 0.06784 | – | – | – | – | 1.173 | 0.915 | 0.738 | 0.611
m1 = 0.07245 | 1002.81 | 1000.65 | 997.6 | 993.73 | – | – | – | –
m1 = 0.0852 | 1003.45 | 1001.27 | 998.22 | 994.33 | – | – | – | –
m1 = 0.08897 | – | – | – | – | 1.183 | 0.922 | 0.743 | 0.615
m1 = 0.1059 | – | – | – | – | 1.191 | 0.93 | 0.747 | 0.619
m1 = 0.1095 | 1004.66 | 1002.44 | 999.37 | 995.46 | – | – | – | –
m1 = 0.1313 | – | – | – | – | 1.204 | 0.939 | 0.755 | 0.624
m1 = 0.1314 | 1005.74 | 1003.49 | 1000.41 | 996.48 | – | – | – | –
m1 = 0.1501 | – | – | – | – | 1.212 | 0.945 | 0.76 | 0.628
m1 = 0.1527 | 1006.77 | 1004.5 | 1001.41 | 997.46 | – | – | – | –

O=C[C@H](O)[C@@H](O)[C@H](O)[C@H](O)CO [D-glucose] + O
Conditions | mass density [kg/m3] | viscosity [mPa·s]
288.15 K, m1 = 0.0513 | – | 1.167
288.15 K, m1 = 0.05146 | 1002.66 | –
288.15 K, m1 = 0.06904 | – | 1.176
288.15 K, m1 = 0.07233 | 1004.08 | –
288.15 K, m1 = 0.09026 | – | 1.188
288.15 K, m1 = 0.09244 | 1005.44 | –
288.15 K, m1 = 0.1114 | – | 1.2
288.15 K, m1 = 0.1294 | – | 1.212
288.15 K, m1 = 0.149 | – | 1.219
298.15 K, m1 = 0.0513 | – | 0.911
298.15 K, m1 = 0.05146 | 1000.54 | –
298.15 K, m1 = 0.06904 | – | 0.918
298.15 K, m1 = 0.07233 | 1001.94 | –
298.15 K, m1 = 0.09026 | – | 0.926
298.15 K, m1 = 0.09244 | 1003.27 | –
298.15 K, m1 = 0.1096 | 1004.41 | –
298.15 K, m1 = 0.1114 | – | 0.935
298.15 K, m1 = 0.1241 | 1005.36 | –
298.15 K, m1 = 0.1294 | – | 0.942
298.15 K, m1 = 0.149 | – | 0.951
308.15 K, m1 = 0.0513 | – | 0.735
308.15 K, m1 = 0.06904 | – | 0.741
308.15 K, m1 = 0.07233 | 998.9 | –
308.15 K, m1 = 0.09026 | – | 0.747
308.15 K, m1 = 0.09244 | 1000.22 | –
308.15 K, m1 = 0.1096 | 1001.34 | –
308.15 K, m1 = 0.1114 | – | 0.755
308.15 K, m1 = 0.1241 | 1002.28 | –
308.15 K, m1 = 0.1294 | – | 0.759
308.15 K, m1 = 0.1456 | 1003.66 | –
308.15 K, m1 = 0.149 | – | 0.764
318.15 K, m1 = 0.0513 | – | 0.609
318.15 K, m1 = 0.05146 | 993.66 | –
318.15 K, m1 = 0.06904 | – | 0.613
318.15 K, m1 = 0.07233 | 995.03 | –
318.15 K, m1 = 0.09026 | – | 0.618
318.15 K, m1 = 0.09244 | 996.33 | –
318.15 K, m1 = 0.1096 | 997.44 | –
318.15 K, m1 = 0.1114 | – | 0.623
318.15 K, m1 = 0.1241 | 998.37 | –
318.15 K, m1 = 0.1294 | – | 0.627
318.15 K, m1 = 0.1456 | 999.74 | –
318.15 K, m1 = 0.149 | – | 0.632

O=C(CO)[C@@H](O)[C@H](O)[C@@H](O)CO [L-sorbose] + O
Conditions | mass density [kg/m3] | viscosity [mPa·s]
288.15 K, m1 = 0.04909 | – | 1.162
288.15 K, m1 = 0.05105 | 1002.68 | –
288.15 K, m1 = 0.06584 | 1003.7 | –
288.15 K, m1 = 0.0704 | – | 1.173
288.15 K, m1 = 0.08456 | – | 1.182
288.15 K, m1 = 0.08815 | 1005.22 | –
288.15 K, m1 = 0.1091 | – | 1.195
288.15 K, m1 = 0.1289 | – | 1.206
288.15 K, m1 = 0.1505 | 1009.38 | –
288.15 K, m1 = 0.1507 | – | 1.216
298.15 K, m1 = 0.04909 | – | 0.907
298.15 K, m1 = 0.05105 | 1000.57 | –
298.15 K, m1 = 0.06584 | 1001.57 | –
298.15 K, m1 = 0.0704 | – | 0.916
298.15 K, m1 = 0.08456 | – | 0.923
298.15 K, m1 = 0.08815 | 1003.06 | –
298.15 K, m1 = 0.1073 | 1004.33 | –
298.15 K, m1 = 0.1091 | – | 0.931
298.15 K, m1 = 0.1507 | – | 0.947
308.15 K, m1 = 0.04909 | – | 0.733
308.15 K, m1 = 0.06584 | 998.56 | –
308.15 K, m1 = 0.0704 | – | 0.738
308.15 K, m1 = 0.08815 | 1000.04 | –
308.15 K, m1 = 0.1073 | 1001.3 | –
308.15 K, m1 = 0.1091 | – | 0.75
308.15 K, m1 = 0.1289 | – | 0.756
308.15 K, m1 = 0.1317 | 1002.89 | –
308.15 K, m1 = 0.1505 | 1004.1 | –
308.15 K, m1 = 0.1507 | – | 0.762
318.15 K, m1 = 0.04909 | – | 0.606
318.15 K, m1 = 0.05105 | 993.72 | –
318.15 K, m1 = 0.06584 | 994.7 | –
318.15 K, m1 = 0.0704 | – | 0.611
318.15 K, m1 = 0.08456 | – | 0.615
318.15 K, m1 = 0.08815 | 996.17 | –
318.15 K, m1 = 0.1073 | 997.41 | –
318.15 K, m1 = 0.1091 | – | 0.62
318.15 K, m1 = 0.1289 | – | 0.624
318.15 K, m1 = 0.1317 | 998.98 | –
318.15 K, m1 = 0.1505 | 1000.18 | –
318.15 K, m1 = 0.1507 | – | 0.629

Reference: the NIST ThermoML archive (doi:10.1021/je500886a)
